Reference: patent US7115586B2, “Non-inclusion cyclodextrin complexes” (Decode Genetics EHF., priority 2001, dated 2006)
In brackets after ≈: the same amount, converted by molar mass. Several values for one entry are separate records, joined by “and”; a condition that tells them apart may be missing. Identical values can stand only once. Counter-ions that a name gives are not always drawn. Like-named read-outs stand apart in the source and are kept apart here.

Assays:
[1] = octanol/water partition coefficient, unionized form; cited from earlier work
[2] = Experiment A: solubility of alprazolam and diflunisal sodium salt in 10% HPβCD; conditions: for solubility at 7 days: 22.5 °C, pH 8.36, aqueous with cosolvent or surfactant or cyclodextrin, thermodynamic from solid
[3] = Phase-solubility in aqueous HPβCD solutions
[4] = Job's plots (continuous variation, NMR and UV); assay type: physicochemical; conditions: sodium salts, buffered solutions (FIG. 3)
Protocol: The total molar concentration (i.e., the combined concentration of drug and HPβCD in moles per liter) was kept constant, but the mole fraction of HPβCD (i.e., [HPβCD]/([drug]+[HPβCD])) were varied from 0.1 to 0.9. The buffer salts were dissolved in 30% (v/v) D2O in water and appropriate amounts of drug and HPβCD were dissolved in the buffer solution. […] […]. The NMR spectra were recorded at 297 K on a Bruker AZ250P 250 MHZ spectrometer (USA). The UV-detector used was a Perkin-Elmer Lambda 3A Spectrophotometer (USA).

physchem [5] = conditions: 22.5 °C, pH 8.36, aqueous with cosolvent or surfactant or cyclodextrin, thermodynamic from solid
[6] = Viscosity (Brookfield digital viscometer); assay type: physicochemical; conditions: 20% (w/v) HPβCD solution
physchem [7] = conditions: 22.5 °C, pH 6, aqueous buffer, thermodynamic from solid
[8] = Phase-solubility of cholesterol in aqueous cyclodextrin solutions; assay type: physicochemical; conditions: aqueous solutions of various β-cyclodextrin derivatives (RMβCD, HPβCD, SBEβCD, TMAβCD, CMβCD), ambient temperature (FIG. 7)
Text: This left a very thin layer of cholesterol on the inner surface of the vials.

[9] = pure water at approximately 25° C.; cited from earlier work

O=C(O)Cc1ccccc1Oc1ccc(Cl)cc1Cl [fenclofenac]
log P [1]: 4.8

CC(C)CCC[C@@H](C)[C@H]1CC[C@H]2C3=CC=C4C[C@@H](O)CC[C@]4(C)[C@H]3CC[C@]12C [dehydrocholesterol]
log P [1]: 7.8

CC(C)Cc1ccc(C(C)C(=O)[O-])cc1.[Na+] (stereo not shown) [ibuprofen sodium salt]
slope of phase-solubility diagram (pH 6.12): 1.12
slope of phase-solubility diagram (pH 6.28): 1.17
slope of phase-solubility diagram (pH 6.72): 1.12

Cc1nnc2n1-c1ccc(Cl)cc1C(c1ccccc1)=NC2 [Alprazolam]
increase in solubility ([2]; 10% HPβCD saturated with diflunisal vs 10% HPβCD alone): 108%
solubility at 7 days ([2]; 10% (w/v) HPβCD solution previously saturated with diflunisal): 1230 µg/mL and 3980 µM
solubility at 7 days ([2]; 10% aqueous HPβCD solution, unbuffered, room temperature): 590 µg/mL and 1910 µM
solubility at 7 days ([3]; 22.5 °C, pH 6, aqueous buffer, thermodynamic from solid): 200 µM (≈ 61.8 µg/mL)
type of phase-solubility diagram ([3]; HPβCD containing pH 6.0 aqueous phosphate buffer solution, no second drug (FIG. 4)): AL-type
type of phase-solubility diagram ([3]; aqueous HPβCD solutions saturated with the sodium salt of diflunisal (FIGS. 5, 6)): AL-type
type of phase-solubility diagram ([3]; in the presence of ibuprofen (FIG. 4A)): AL-type

CC(C)Cc1ccc(C(C)C(=O)O)cc1 (stereo not shown) [ibuprofen]
mole fraction of HPβCD in the complex (Job's plots) [4]: 0.5
effect of increase in ionic strength on solubility (pH 6): does not effect
slope of phase-solubility diagram (pH 6): 1.2
type of phase-solubility diagram (pH 6): AL-type

O=C(O)c1cc(-c2ccc(F)cc2F)ccc1O [diflunisal]
mole fraction of HPβCD in the complex (Job's plots) [4]: 0.5
log P [1]: 4.4
solubility at 7 days (physchem [5]): ~47 mg/mL (≈ 188 mM)
slope of phase-solubility diagram (pH 6): 1.1
type of phase-solubility diagram (pH 6): AL-type

2-Hydroxypropyl-β-cyclodextrin
viscosity [6]: 2.10 cPoise

CC/C(=C(/CC)c1ccc(O)cc1)c1ccc(O)cc1 [Diethylstilbestrol]
solubility at 7 days (physchem [7]): 10 µM (≈ 2.68 µg/mL)
Complexation efficiency (slope/(1 − slope)) (pH 6): 2
Slope of the phase-solubility diagram (pH 6): 0.71
shape of phase-solubility diagram (pH 6): non-linear
type of phase-solubility diagram (pH 6): AL-type

O=C(O)c1cc(-c2ccc(F)cc2F)ccc1O [sodium salt of diflunisal, diflunisal sodium salt]
slope of phase-solubility diagram (pH 8.36): 1.1
type of phase-solubility diagram (pH 8.36): AL-type

CC(C)CCC[C@@H](C)[C@H]1CC[C@H]2[C@@H]3CC=C4C[C@@H](O)CC[C@]4(C)[C@H]3CC[C@]12C [cholesterol]
log P [1]: 8.5
type of phase-solubility diagram [8]: AP-type

β-cyclodextrin sulfobutyl ether sodium salt
Solubility in water [9]: >500 mg/mL

carotene
log P [1]: > 10

Oc1cc(Cl)ccc1Oc1ccc(Cl)cc1Cl [triclosan]
log P [1]: 4.8
